Results from ChEMBL document CHEMBL1138190, “Synthesis and antibacterial activity of novel C12 vinyl ketolides” (J Med Chem, 2006).
≈ marks a conversion by molar mass, not a printed value. Calls of active or inactive are those of the source. No cut-off for these calls is given here.

Assays:
Streptococcus pneumoniae [1] = experiment: Antibacterial activity against Streptococcus pneumoniae Mef 1790; format: functional
Streptococcus pneumoniae [2] = experiment: Antibacterial activity against Streptococcus pneumoniae Mef 2382; format: functional
Streptococcus pneumoniae [3] = experiment: Antibacterial activity against Streptococcus pneumoniae Mef 2880; format: functional
Streptococcus pneumoniae [4] = experiment: Antibacterial activity against Streptococcus pneumoniae Mef 3449; format: functional
Streptococcus pneumoniae [5] = experiment: Antibacterial activity against Streptococcus pneumoniae Mef 3855; format: functional
Streptococcus pneumoniae [6] = experiment: Antibacterial activity against Streptococcus pneumoniae Mef 4126; format: functional
Streptococcus pneumoniae [7] = experiment: Antibacterial activity against Streptococcus pneumoniae Mef 4331; format: functional
Streptococcus pneumoniae [8] = experiment: Antibacterial activity against Streptococcus pneumoniae Mef 6966; format: functional
Streptococcus pneumoniae [9] = experiment: Antibacterial activity against Streptococcus pneumoniae Mef 9142; format: functional
Streptococcus pneumoniae [10] = experiment: Antibacterial activity against Streptococcus pneumoniae Mef 9959; format: functional
Streptococcus pneumoniae [11] = experiment: Antibacterial activity against Streptococcus pneumoniae Mef 10095; format: functional
Streptococcus pneumoniae [12] = experiment: Antibacterial activity against Streptococcus pneumoniae Erm 6396; format: functional
Streptococcus pneumoniae [13] = experiment: Antibacterial activity against Streptococcus pneumoniae Erm 6388; format: functional
Streptococcus pneumoniae [14] = experiment: Antibacterial activity against Streptococcus pneumoniae Erm S 4297; format: functional
Streptococcus pneumoniae [15] = experiment: Antibacterial activity against Streptococcus pneumoniae Erm S 4085; format: functional
Streptococcus pneumoniae [16] = experiment: Antibacterial activity against Streptococcus pneumoniae Erm 867; format: functional
Streptococcus pneumoniae [17] = experiment: Antibacterial activity against Streptococcus pneumoniae Erm 2218; format: functional
Streptococcus pneumoniae [18] = experiment: Antibacterial activity against Streptococcus pneumoniae Erm 3120; format: functional
Streptococcus pneumoniae [19] = experiment: Antibacterial activity against Streptococcus pneumoniae Erm 4290; format: functional
Streptococcus pneumoniae [20] = experiment: Antibacterial activity against Streptococcus pneumoniae Erm 4589; format: functional
Streptococcus pneumoniae [21] = experiment: Antibacterial activity against Streptococcus pneumoniae Erm 5354; format: functional
Streptococcus pneumoniae [22] = experiment: Antibacterial activity against Streptococcus pneumoniae Erm 5399; format: functional
Streptococcus pneumoniae [23] = experiment: Antibacterial activity against Streptococcus pneumoniae Erm 5415; format: functional
Streptococcus pneumoniae [24] = experiment: Antibacterial activity against Streptococcus pneumoniae Erm 5554; format: functional
Streptococcus pneumoniae [25] = experiment: Antibacterial activity against Streptococcus pneumoniae Erm 7985; format: functional
Streptococcus pneumoniae [26] = experiment: Antibacterial activity against Streptococcus pneumoniae Erm 8257; format: functional
Streptococcus pneumoniae [27] = experiment: Antibacterial activity against Streptococcus pneumoniae Erm 8339; format: functional
Streptococcus pneumoniae [28] = experiment: Antibacterial activity against Streptococcus pneumoniae Erm 8919; format: functional
Haemophilus influenzae [29] = experiment: Antibacterial activity against Haemophilus influenzae 2762; format: functional
Streptococcus pneumoniae [30] = experiment: Antibacterial activity against Streptococcus pneumoniae Erm 8947; format: functional
Streptococcus pneumoniae [31] = experiment: Antibacterial activity against Streptococcus pneumoniae Erm 10279; format: functional
Streptococcus pneumoniae [32] = experiment: Antibacterial activity against Streptococcus pneumoniae Erm 5590; format: functional
Staphylococcus aureus [33] = experiment: Antibacterial activity against Staphylococcus aureus 29213; format: functional
Staphylococcus aureus [34] = experiment: Antibacterial activity against Staphylococcus aureus 33591; format: functional
[35] = test system: Staphylococcus epidermidis; experiment: Antibacterial activity against Staphylococcus epidermidis 14990; format: functional
[36] = test system: Staphylococcus epidermidis; experiment: Antibacterial activity against Staphylococcus epidermidis f50654; format: functional
Enterococcus faecalis [37] = experiment: Antibacterial activity against Enterococcus faecalis 29212; format: functional
Enterococcus faecalis [38] = experiment: Antibacterial activity against Enterococcus faecalis bc11148-2; format: functional
Streptococcus pyogenes = experiment: Antibacterial activity against Streptococcus pyogenes 8668; format: functional
Streptococcus pneumoniae [39] = experiment: Antibacterial activity against Streptococcus pneumoniae 49619; format: functional
Streptococcus pneumoniae [40] = experiment: Antibacterial activity against Streptococcus pneumoniae 297-749; format: functional
Streptococcus pneumoniae [41] = experiment: Antibacterial activity against Streptococcus pneumoniae 280-962; format: functional
Streptococcus pneumoniae [42] = experiment: Antibacterial activity against Streptococcus pneumoniae Erm 6849; format: functional
Streptococcus pneumoniae [43] = experiment: Antibacterial activity against Streptococcus pneumoniae Mef 5654; format: functional
Streptococcus pneumoniae [44] = experiment: Antibacterial activity against Streptococcus pneumoniae Mef S 3427; format: functional
Haemophilus influenzae [45] = experiment: Antibacterial activity against Haemophilus influenzae 49247; format: functional
[46] = Plasma half life in Sprague-Dawley rat at 5 mg/kg, iv; format: ADME, organism-based; design: dose 5 mg/kg, route intravenous
[47] = Plasma half life in Sprague-Dawley rat at 15 mg/kg, po; format: ADME, organism-based; design: dose 15 mg/kg, route oral
[48] = Lung half life in Sprague-Dawley rat at 15 mg/kg, po; format: ADME, organism-based; design: dose 15 mg/kg, route oral
[49] = Oral bioavailability in Sprague-Dawley rat at 15 mg/kg, po; format: ADME, organism-based; conditions: in vivo
Rattus norvegicus [50] = experiment: Efficacy against Streptococcus pneumoniae Erm in Sprague-Dawley rat lung infection model at 50 mg/kg; format: functional, organism-based; design: dose 50 mg/kg
Rattus norvegicus [51] = experiment: Efficacy against Haemophilus influenzae in Sprague-Dawley rat lung infection model at 50 mg/kg; format: functional, organism-based; design: dose 50 mg/kg
Rattus norvegicus [52] = experiment: Plasma AUC in Sprague-Dawley rat at 5 mg/kg, iv; format: ADME, organism-based; design: dose 5 mg/kg, route intravenous; conditions: in vivo
[53] = Lung-to-plasma AUC ratio in Sprague-Dawley rat at 5 mg/kg, iv; format: ADME, organism-based; design: dose 5 mg/kg, route intravenous; conditions: lung and plasma
[54] = Volume of distribution in Sprague-Dawley rat at 5 mg/kg, iv and 15 mg/kg, po; format: ADME, organism-based; conditions: in vivo, read-out: Vdss
Streptococcus pneumoniae [55] = experiment: Antibacterial activity against Streptococcus pneumoniae Mef 5649; format: functional
Streptococcus pneumoniae [56] = experiment: Antibacterial activity against Streptococcus pneumoniae Mef S 3435; format: functional
Streptococcus pneumoniae [57] = experiment: Antibacterial activity against Streptococcus pneumoniae Mef 41; format: functional
Streptococcus pneumoniae [58] = experiment: Antibacterial activity against Streptococcus pneumoniae Mef 953; format: functional
Streptococcus pneumoniae [59] = experiment: Antibacterial activity against Streptococcus pneumoniae Mef 983; format: functional
Streptococcus pneumoniae [60] = experiment: Antibacterial activity against Streptococcus pneumoniae Mef 1556; format: functional
Streptococcus pneumoniae [61] = experiment: Antibacterial activity against Streptococcus pneumoniae Mef 1566; format: functional

C=C[C@]12OC(=O)N(CCCCn3cnc(-c4ccc(C)nc4)c3)[C@@H]1[C@@H](C)C(=O)[C@H](C)C[C@@](C)(OC)[C@H](O[C@@H]1O[C@H](C)C[C@H](N(C)C)[C@H]1O)[C@@H](C)C(=O)[C@@H](C)C(=O)O[C@@H]2CC
MIC (Streptococcus pneumoniae [1]): 0.2 µg/mL (≈ 0.239 µM) | MIC (Streptococcus pneumoniae [2]): 0.1 µg/mL (≈ 0.119 µM) | MIC (Streptococcus pneumoniae [3]): 0.2 µg/mL (≈ 0.239 µM) | MIC (Streptococcus pneumoniae [4]): 0.2 µg/mL (≈ 0.239 µM) | MIC (Streptococcus pneumoniae [5]): 0.2 µg/mL (≈ 0.239 µM) | MIC (Streptococcus pneumoniae [6]): ≤ 0.05 µg/mL | MIC (Streptococcus pneumoniae [7]): 0.4 µg/mL (≈ 0.477 µM) | MIC (Streptococcus pneumoniae [8]): 0.2 µg/mL (≈ 0.239 µM) | MIC (Streptococcus pneumoniae [9]): 0.4 µg/mL (≈ 0.477 µM) | MIC (Streptococcus pneumoniae [10]): 0.2 µg/mL (≈ 0.239 µM) | MIC (Streptococcus pneumoniae [11]): ≤ 0.05 µg/mL | MIC (Streptococcus pneumoniae [12]): 0.1 µg/mL (≈ 0.119 µM) | MIC (Streptococcus pneumoniae [13]): 3.13 µg/mL (≈ 3.73 µM) | MIC (Streptococcus pneumoniae [14]): 0.025 µg/mL (≈ 0.0298 µM) | MIC (Streptococcus pneumoniae [15]): 0.025 µg/mL (≈ 0.0298 µM) | MIC (Streptococcus pneumoniae [16]): 0.025 µg/mL (≈ 0.0298 µM) | MIC (Streptococcus pneumoniae [17]): 0.1 µg/mL (≈ 0.119 µM) | MIC (Streptococcus pneumoniae [18]): 0.2 µg/mL (≈ 0.239 µM) | MIC (Streptococcus pneumoniae [19]): 0.05 µg/mL (≈ 0.0597 µM) | MIC (Streptococcus pneumoniae [20]): 0.025 µg/mL (≈ 0.0298 µM) | MIC (Streptococcus pneumoniae [21]): 0.025 µg/mL (≈ 0.0298 µM) | MIC (Streptococcus pneumoniae [22]): 0.025 µg/mL (≈ 0.0298 µM) | MIC (Streptococcus pneumoniae [23]): 0.025 µg/mL (≈ 0.0298 µM) | MIC (Streptococcus pneumoniae [24]): 0.78 µg/mL (≈ 0.931 µM) | MIC (Streptococcus pneumoniae [25]): ≤ 0.013 µg/mL | MIC (Streptococcus pneumoniae [26]): ≤ 0.013 µg/mL | MIC (Streptococcus pneumoniae [27]): 1.56 µg/mL (≈ 1.86 µM) | MIC (Streptococcus pneumoniae [28]): 0.025 µg/mL (≈ 0.0298 µM) | MIC (Haemophilus influenzae [29]): 1.56 µg/mL (≈ 1.86 µM) | MIC (Streptococcus pneumoniae [30]): 0.4 µg/mL (≈ 0.477 µM) | MIC (Streptococcus pneumoniae [31]): 0.025 µg/mL (≈ 0.0298 µM) | MIC (Streptococcus pneumoniae [32]): 0.025 µg/mL (≈ 0.0298 µM) | MIC (Staphylococcus aureus [33]): 0.2 µg/mL (≈ 0.239 µM) | MIC (Staphylococcus aureus [34]): > 50 µg/mL | MIC [35]: 0.2 µg/mL (≈ 0.239 µM) | MIC [36]: 0.2 µg/mL (≈ 0.239 µM) | MIC (Enterococcus faecalis [37]): 0.1 µg/mL (≈ 0.119 µM) | MIC (Enterococcus faecalis [38]): 0.78 µg/mL (≈ 0.931 µM) | MIC (Streptococcus pyogenes): ≤ 0.05 µg/mL | MIC (Streptococcus pneumoniae [39]): ≤ 0.05 µg/mL | MIC (Streptococcus pneumoniae [40]): ≤ 0.05 µg/mL | MIC (Streptococcus pneumoniae [41]): ≤ 0.05 µg/mL | MIC (Streptococcus pneumoniae [42]): 0.1 µg/mL (≈ 0.119 µM) | MIC (Streptococcus pneumoniae [43]): 0.4 µg/mL (≈ 0.477 µM) | MIC (Streptococcus pneumoniae [44]): 0.2 µg/mL (≈ 0.239 µM) | MIC (Haemophilus influenzae [45]): 3.13 µg/mL (≈ 3.73 µM) | half-life [46]: 1.6 h | half-life [47]: 2.4 h | half-life [48]: 3.4 h | bioavailability [49]: 35% | Activity (Rattus norvegicus [50]): Active | Activity (Rattus norvegicus [51]): Active | AUC (Rattus norvegicus [52]): 2100 ng·h/mL | Kp [53]: 80 | Vd [54]: 14 L/kg | MIC (Streptococcus pneumoniae [55]): 0.2 µg/mL (≈ 0.239 µM) | MIC (Streptococcus pneumoniae [56]): <=0.05 ug ml-1 | MIC (Streptococcus pneumoniae [57]): 0.1 µg/mL (≈ 0.119 µM) | MIC (Streptococcus pneumoniae [58]): 0.1 µg/mL (≈ 0.119 µM) | MIC (Streptococcus pneumoniae [59]): 0.4 µg/mL (≈ 0.477 µM) | MIC (Streptococcus pneumoniae [60]): ≤ 0.05 µg/mL | MIC (Streptococcus pneumoniae [61]): 0.4 µg/mL (≈ 0.477 µM)

CC[C@H]1OC(=O)[C@H](C)[C@@H](O[C@H]2C[C@@](C)(OC)[C@@H](O)[C@H](C)O2)[C@H](C)[C@@H](O[C@@H]2O[C@H](C)C[C@H](N(C)C)[C@H]2O)[C@](C)(OC)C[C@@H](C)C(=O)[C@H](C)[C@@H](O)[C@]1(C)O [CLARITHROMYCIN]
MIC (Haemophilus influenzae [29]): 0.78 µg/mL (≈ 1.04 µM) | MIC (Staphylococcus aureus [33]): 0.4 µg/mL (≈ 0.535 µM) | MIC (Staphylococcus aureus [34]): > 50 µg/mL | MIC [35]: 0.2 µg/mL (≈ 0.267 µM) | MIC [36]: 0.2 µg/mL (≈ 0.267 µM) | MIC (Enterococcus faecalis [37]): 0.78 µg/mL (≈ 1.04 µM) | MIC (Enterococcus faecalis [38]): > 50 µg/mL | MIC (Streptococcus pyogenes): ≤ 0.05 µg/mL | MIC (Streptococcus pneumoniae [39]): ≤ 0.05 µg/mL | MIC (Streptococcus pneumoniae [40]): ≤ 0.05 µg/mL | MIC (Streptococcus pneumoniae [41]): ≤ 0.05 µg/mL | MIC (Streptococcus pneumoniae [42]): > 50 µg/mL | MIC (Streptococcus pneumoniae [43]): 6.25 µg/mL (≈ 8.36 µM) | MIC (Streptococcus pneumoniae [44]): 3.13 µg/mL (≈ 4.18 µM) | MIC (Haemophilus influenzae [45]): 6.25 µg/mL (≈ 8.36 µM)
